Measured values as given in PubChem BioAssay (NCI).
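Test compounds were applied to cells in 96-well plates for 48 hours at 5 doses. At the TGI there is no net growth.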

Legend:
Test in all cases: DTP human tumour cell line panel, 48 h
786-0 renal = test system: 786-0 renal
A498 renal = test system: A498 renal
EKVX NSCLC = test system: EKVX NSCLC
HCT-116 colon = test system: HCT-116 colon
HOP-62 NSCLC = test system: HOP-62 NSCLC
IGROV1 ovarian = test system: IGROV1 ovarian
K-562 leukemia = test system: K-562 leukemia
LOX IMVI melanoma = test system: LOX IMVI melanoma
LXFL 529 NSCLC = test system: LXFL 529 NSCLC
M14 melanoma = test system: M14 melanoma
NCI-H226 lung = test system: NCI-H226 lung
OVCAR-3 ovarian = test system: OVCAR-3 ovarian
OVCAR-4 ovarian = test system: OVCAR-4 ovarian
SK-MEL-28 melanoma = test system: SK-MEL-28 melanoma
SK-OV-3 ovarian = test system: SK-OV-3 ovarian
UACC-257 melanoma = test system: UACC-257 melanoma
UO-31 renal = test system: UO-31 renal
HCT-15 colon = test system: HCT-15 colon
DU-145 prostate = test system: DU-145 prostate
SR leukemia = test system: SR leukemia

Structure (SMILES)	TGI (786-0 renal)	TGI (A498 renal)	TGI (EKVX NSCLC)	TGI (HCT-116 colon)	TGI (HOP-62 NSCLC)	TGI (IGROV1 ovarian)	TGI (K-562 leukemia)	TGI (LOX IMVI melanoma)	TGI (LXFL 529 NSCLC)	TGI (M14 melanoma)	TGI (NCI-H226 lung)	TGI (OVCAR-3 ovarian)	TGI (OVCAR-4 ovarian)	TGI (SK-MEL-28 melanoma)	TGI (SK-OV-3 ovarian)	TGI (UACC-257 melanoma)	TGI (UO-31 renal)	TGI (HCT-15 colon)	TGI (DU-145 prostate)	TGI (SR leukemia)
CC(=O)Nc1ccc(C(=O)NN2C(=O)C(Cl)C2c2ccccc2)cc1 (centres undefined)	> 100 µM	> 100 µM	> 100 µM	> 100 µM	> 100 µM	> 100 µM	> 100 µM	> 100 µM	> 100 µM	> 100 µM	> 100 µM	> 100 µM	> 100 µM	> 100 µM	> 100 µM	> 100 µM	> 100 µM	–	–	–
COc1cc(C[S+]2CCCC2)c(SC)cc1C[S+]1CCCC1	> 100 µM	> 100 µM	> 100 µM	> 100 µM	> 100 µM	> 100 µM	> 100 µM	> 100 µM	> 100 µM	> 100 µM	> 100 µM	> 100 µM	> 100 µM	> 100 µM	> 100 µM	> 100 µM	> 100 µM	> 100 µM	–	–
COc1cc(C2c3cc4c(cc3OC(N3CCCC3)C2C)OCO4)cc(OC)c1O (centres undefined)	59.5 µM	56.9 µM	> 80.7 µM	> 100 µM	56.7 µM	> 100 µM	> 95.7 µM	> 100 µM	–	> 51.1 µM	80.9 µM	> 65.5 µM	> 100 µM	> 100 µM	62.4 µM	> 100 µM	> 100 µM	> 100 µM	> 90 µM	> 100 µM
C[C@@H]1C[C@H]2[C@@H]3CCC4=CC(=O)C=C[C@]4(C)[C@@]3(Cl)[C@@H](Cl)C[C@]2(C)[C@@]1(O)C(=O)COP(=O)(O)O	> 100 µM	> 100 µM	> 100 µM	> 100 µM	> 100 µM	> 100 µM	> 100 µM	> 100 µM	–	> 100 µM	> 100 µM	> 100 µM	> 100 µM	> 100 µM	> 100 µM	> 100 µM	> 100 µM	> 100 µM	> 100 µM	> 100 µM
COc1ccc(C2S/C(=C\c3ccccc3O)C(=O)N2NC(=O)Cc2ccccc2)cc1 (centres undefined)	> 100 µM	> 100 µM	–	> 100 µM	> 100 µM	> 100 µM	> 100 µM	> 100 µM	> 100 µM	> 100 µM	> 100 µM	–	> 100 µM	> 100 µM	> 100 µM	> 100 µM	> 100 µM	> 100 µM	–	> 100 µM
C[C@]12C=CC(=O)C=C1CC[C@H]1[C@@H]3C[C@@H](O)[C@](O)(C(=O)CO)[C@@]3(C)C[C@H](O)[C@@]12F	> 100 µM	> 100 µM	> 100 µM	> 100 µM	> 100 µM	> 100 µM	> 100 µM	> 100 µM	> 100 µM	> 100 µM	> 100 µM	> 100 µM	> 100 µM	> 100 µM	> 100 µM	> 100 µM	> 100 µM	> 100 µM	–	> 100 µM
O=C(c1ccc(O)cc1)C1c2c3c(cc(O)c2C(c2ccc(O)cc2)C1c1cc(O)cc(O)c1)OC(c1ccc(O)cc1)C3c1cc2c(cc1O)OC(c1ccc(O)cc1)C2c1cc(O)cc(O)c1 (centres undefined)	> 12.5 µM	> 12.5 µM	> 12.5 µM	> 12.5 µM	> 12.5 µM	–	> 12.5 µM	> 12.5 µM	> 12.5 µM	> 12.5 µM	> 12.5 µM	> 12.5 µM	> 12.5 µM	> 12.5 µM	–	> 12.5 µM	> 12.5 µM	> 12.5 µM	–	> 12.5 µM
Cc1ccc(S(=O)(=O)N/N=C/C(=C/c2ccc(Cl)cc2)CC(/C=N/NS(=O)(=O)c2ccc(C)cc2)=C\c2ccc(Cl)cc2)cc1	4.38 µM	29 µM	38.4 µM	18.9 µM	70.8 µM	35.7 µM	8.19 µM	3.73 µM	–	48.1 µM	38 µM	12.2 µM	24.8 µM	20.2 µM	> 100 µM	63.6 µM	18.7 µM	12.3 µM	> 100 µM	24.5 µM
O=C(O)/C=N\Nc1nc2ccccc2[nH]1	> 100 µM	> 100 µM	> 100 µM	> 100 µM	> 100 µM	> 100 µM	> 100 µM	> 100 µM	–	> 100 µM	> 100 µM	> 100 µM	> 100 µM	> 100 µM	> 100 µM	> 100 µM	> 100 µM	> 100 µM	> 100 µM	> 100 µM
